Experimental data from publication PMC6212778, “Site-specific amino acid substitution in dodecameric peptides determines the stability and unfolding of c-MYC quadruplex promoting apoptosis in cancer cells” (Nucleic Acids Research, 2018).

Columns and labels:
[1] = molecular target: c-MYC quadruplex (Pu27); test: ITC of KR12C with Pu27 under macromolecular crowding (MCF-7 nuclear extract); assay type: binding, human
Protocol: (§1) Thermodynamic attributes of the interaction profiles between peptides and putative quadruplex sequences are analysed by ITC using iTC200 Microcalorimeter at 25°C. Synthetic peptides (FK13, KR12A, KR12B, KR12C, KR12D and KR12E) are diluted to 20 μM in 10 mM Potassium phosphate buffer (10 mM K2HPO4 + 10 mM KH2PO4) containing 0.1 M KCl (pH 7.0). Syringe is filled with 500 μM quadruplex sequences present in the upstream promoter regions of c-MYC (Pu27, Pu19, and Myc22), BCL-2 (Pu30), VEGF-A (Pu22), KRAS (Pu32) oncogenes, and telomere (Tel26) dissolved into the same buffer. We also carried out the experiment for KR12C and Pu27 using MCF-7 nuclear extract as the solvent to mimic the cellular microenvironment and impart macromolecular crowding during binding events. Same concentration of oligonucleotides is injected into the identical buffer or in nuclear extract without peptides to normalize the heat of dilution of peptide-quadruplex association to that of the control before curve-fitting. […] The heat of reaction per injection (μcal/s) is determined by integration of the peak areas using in-built Origin 7.0 software that provides the best-fit values of enthalpy (ΔH) and entropy (ΔS) of binding, the binding stoichiometry (n), and dissociation constant (Kd) (Supplementary Tables S5(a), S5(b) and S5(c)). […]

[2] = system: BCL-2 (Pu30) quadruplex; test: ITC of peptides with BCL-2 quadruplex; assay type: binding, human; conditions: potassium phosphate buffer pH 7.0
Protocol: as §1

[3] = system: telomere (Tel26) quadruplex; test: ITC of peptides with telomeric quadruplex; assay type: binding, human; conditions: potassium phosphate buffer pH 7.0
Protocol: as §1

[4] = system: KRAS (Pu32) quadruplex; test: ITC of peptides with KRAS quadruplex; assay type: binding, human; conditions: potassium phosphate buffer pH 7.0
Protocol: as §1

[5] = system: VEGF-A (Pu22) quadruplex; test: ITC of peptides with VEGF-A quadruplex; assay type: binding, human; conditions: potassium phosphate buffer pH 7.0
Protocol: as §1

[6] = system: c-MYC quadruplex isomer Pu19; test: CD melting of free and peptide-bound Pu19; assay type: binding, human; conditions: 10 μM quadruplex, two-state model
Protocol: To understand the role of peptides (FK13, KR12A, KR12B, KR12C, KR12D and KR12E) in stabilizing native and truncated isomers of c-MYC G-quadruplex, we have performed temperature-driven CD melting experiments for free and peptide-bound complexes in JASCO-J815 CD spectrometer. We have gradually titrated the peptides into 10 μM of putative quadruplexes and acquired the spectra after 5 min of peptide addition to allow complex formation and equilibration. Samples are heated from 20 to 95°C having the temperature gradient and the delay time of 2.5°C/min and 150 s respectively. Since the quadruplexes unfold at higher temperatures and revert back to their initial conformations upon renaturation, we have assumed a ‘two-state transition’ model (folded and unfolded) to analyze the melting curves and estimated the melting temperatures (Tm) by fitting the data points into sigmoidal curves (Supplementary information Section 1).

[7] = system: MCF-7 cells; test: Western blot / real time PCR of apoptotic markers and signalling proteins; assay type: cell-based, human; conditions: MCF-7, 5 and 10 μM KR12C, 24 h
Protocol: To observe the effect of KR12C in c-MYC protein expression, and to decipher the peptide-driven signaling pathway to trigger apoptosis within cancer cells, we have performed an array of Western Blot experiments. MCF-7 cells are seeded at a density of 7 × 10^5 cells per well into 60 mm dishes and allowed to attach overnight. Next day cells are serum starved for 18 h. At the end of 18 h fresh medium supplemented with 2% FBS +1% antibiotic and anti-mycotic is added. Then cells are treated with 5 μM and 10 μM KR12C. Recombinant VEGF is added at a concentration of 200 ng/ml of medium either alone or in combination with 10 μM KR12C. Cells are harvested after 24 hrs of treatment.
Whole cell lysate is prepared using the Cell Lysis Buffer (Cell Signalling Technologies) according to the manufacturer's protocol supplemented with Phenylmethylsulfonyl fluoride (PMSF) (Merck) and Protease Inhibitory Cocktail (PIC) (Merck). 40 μg of protein is separated using sodium dodecyl sulfate polyacrylamide gel electrophoresis (SDS-PAGE). (4% stacking gel and 12–15% resolving gel). Samples are transferred to polyvinylidene fluoride (PVDF) membranes (Immobilon-P, EMD Millipore). Membranes were blocked using 5% milk in Tris-buffered saline (TBS) with Tween 20 (Amresco) for 45 min at room temperature. Membranes are then incubated overnight at 4°C with the following antibodies: anti-c-Myc (Rabbit polyclonal, 1:500 dil. Cell Signalling Technology Inc.), Mouse anti-Bcl2 (Mouse monoclonal, 1:250 dil. Santacruz Biotechnology Inc.), anti E2F1, anti VEGF-A, anti-P53, anti-APAF1, anti-Caspase 8, anti-PARP (Abcam), anti-β-actin (Mouse monoclonal, 1:10 000 dil. Santacruz Biotechnology Inc.). Next membranes are incubated with peroxidase conjugated anti-rabbit IgG raised in Goat (Sigma, 1:8000 dil.) and peroxidase conjugated anti-mouse IgG raised in Rabbit (Sigma, 1:10 000 dil.) for 2 h at room temperature. Target proteins are visualised on membranes using Clarity TM Western ECL substrate (Bio-rad) and images are captured using ChemiDoc MP system with Image Lab™ software for PC version 6.0 (Bio-rad).

## N – KRIVKLIKKWLR – C [KR12C]
[1]; 25°C, MCF-7 nuclear extract as solvent, single-site model, background subtracted
  Kd: 0.901 µM
[1]; macromolecular crowding
  fold increase in binding affinity for Pu27 in MCF-7 nuclear extract versus potassium phosphate buffer: ~8 fold
[2]
  binding affinity with BCL-2 quadruplex: very poor or no binding affinity
  fold decreased affinity for BCL-2 quadruplex compared to c-MYC quadruplexes: ~3 fold
[3]
  fold decreased affinity for telomeric quadruplex compared to c-MYC quadruplexes: ~4 fold
[4]
  binding affinity with KRAS quadruplex: very poor or no binding affinity
[5]
  binding affinity with VEGF-A quadruplex: very poor or no binding affinity
[6]
  rise in the Tm of Pu19 upon peptide binding: 10.87 °C
[7]; western blot
  expression of p53, cleaved PARP, caspase 8 and APAF-1: significant upregulation
[7]; western blot and real time PCR
  BCL-2 expression at transcription and translation level: suppressed
  VEGF-A and E2F-1 expression: significantly suppressed
